Assay results reported in PubChem BioAssay AID2823 (Broad Institute, 2010).
The source made the active and inactive calls. How the calls were made is not given here.

Molecular target: RanGTP-importin-beta complex (human Ran / KPNB1)
Assay: disruptors of RanGTP/KPNB1 binding – biochemical, FRET, CFP/YFP, cell-free homogeneous, confirmation (AID 2823)
Settings: CFP-Ran/YFP-importin-beta FRET ratio

Row | SMILES | IC50
1 | CCN1CCC2(CC1)C(C#N)=C(N)Oc1c2sc2nc(C)cc(C)c12 | > 50 µM (inactive)
2 | CC(=O)c1ccc(-c2cccs2)s1 | 34.7 µM
3 | CCN(CC)CCCNC(=S)N(Cc1cccs1)Cc1cc2cc3c(cc2[nH]c1=O)OCCO3 | > 50 µM (inactive)
4 | Cc1nc2[nH]c(=O)c3c(n2n1)NC1=C(C(=O)CC(C)(C)C1)C3c1ccccc1 (stereo not given) | 3.37 µM
5 | CN1CC2=CC(O)CC3Oc4c(O)ccc(c4[C@]23C)C1 (stereo not given in full) | > 50 µM (inactive)
6 | Nc1nc(CSc2nc3ccccc3s2)nc(N2CCCCC2)n1 | > 50 µM (inactive)
7 | C=CCn1c(SCCOc2ccc(OC)cc2)nnc1C(CO)NC(=O)c1ccc(OC)cc1 (stereo not given) | > 50 µM (inactive)
8 | COC(=O)CCC(=O)OC1(C)C(=O)C=C2C=C(C3CC3)N(Cc3ccc(OC)cc3)C=C2C1=O (stereo not given) | 26.7 µM
9 | CCCn1c(O)c(C=Nc2ccccc2)sc1=S | 39.4 µM
10 | COCCCn1c(N)c(C(=O)OC(C)COC)c2nc3ccccc3nc21 (stereo not given) | 24.8 µM
11 | Oc1c(C(Nc2nc3ccccc3s2)c2ccco2)ccc2cccnc12 (stereo not given) | > 50 µM (inactive)
12 | CCCCCN(C(=O)CN(C)Cc1ccc(OC)cc1OC)c1c(N)n(CCCC)c(=O)[nH]c1=O | > 50 µM (inactive)
13 | O=C(CN1C2CCCC1CC(NC(=O)c1ccco1)C2)Nc1ccccc1C(F)(F)F (stereo not given) | > 50 µM (inactive)
14 | COC(=O)c1ccc2c(=O)n(CCN3CCOCC3)c(SCC(=O)C(C)(C)C)nc2c1 | > 50 µM (inactive)
15 | CCN(Cc1ccccc1)C(=O)CN1C(=O)NC(CC)(c2ccc(F)cc2)C1=O (stereo not given) | > 50 µM (inactive)
16 | Cc1c(C#N)c(NC(=O)CCl)n(Cc2ccccc2)c1C | > 50 µM (inactive)
17 | O=C(Cn1c2ccccc2c(=O)c2ccccc21)Nc1ccccc1F | 5.51 µM
18 | COc1ccc(CCNC(=O)c2cc3c(=O)n4ccccc4nc3n(CC3CCCO3)c2=N)cc1OC (stereo not given) | 21.3 µM
19 | COCCNC(=S)N1CCCN(c2nc3cc(C)ccc3cc2C#N)CC1 | 29.5 µM
20 | CCN(CC)S(=O)(=O)c1ccc2oc(C(=O)NCCCN3CCOCC3)c(C)c2c1 | > 50 µM (inactive)
21 | Cc1nnc(Sc2nc3c(c(=O)n(C)c(=O)n3C)n2Cc2ccccc2Cl)s1 | > 50 µM (inactive)
22 | COc1ccc(-c2nc3ccc(C(=O)NCCCN4CCOCC4)cc3nc2-c2ccc(OC)cc2)cc1 | 46.4 µM
23 | Cc1c(CCC(=O)NCCCN2CCCC2=O)c(=O)oc2c(C)c(O)ccc12 | 15.6 µM
24 | Cc1ccc(S(=O)(=O)c2cc3c(=O)n4cccc(C)c4nc3n(C3CCCCC3)c2=N)cc1 | 1.2 µM
25 | CCN1CCN(Cc2ccc(NC(=O)c3ccc(C)c(/C=C/c4cnc(Nc5cc(N6CCNCC6)nc(C)n5)cn4)c3)cc2C(F)(F)F)CC1 | 19.5 µM

Row | SMILES | IC50
26 | CC1CN(c2cc(=O)n(-c3cccc(Br)c3)c(=O)[nH]2)CC(C)O1 (stereo not given) | > 50 µM (inactive)
27 | CC(=O)O[C@H]1CCC2C3CCC4=CC(=O)CCC4=C3C=C[C@@]21C (stereo not given in full) | > 50 µM (inactive)
28 | Cc1nc2nc(CCNS(=O)(=O)c3ccc(Cl)cc3)cn2nc1C | 41.2 µM
29 | N#C/C(=C/c1ccc(N2CCCCC2)o1)C(=O)NCCc1c[nH]c2ccccc12 | 0.936 µM
30 | CC(=O)c1cccc(OCC(=O)N(C)CC(=O)Nc2ccc(F)cc2)c1 | > 50 µM (inactive)
31 | NS(=O)(=O)c1ccc(N=Nc2c[nH]c(=O)c(O)c2)cc1 | > 50 µM (inactive)
32 | CC1C2(C)OC(=N)C(C#N)(C(C)O2)C1(C#N)C#N (stereo not given) | 44.2 µM
33 | COc1ccccc1CNC(=O)Cn1ccsc1=N | > 50 µM (inactive)
34 | COc1ccccc1N=C(C)C1=C(O)CC(c2ccccc2)CC1=O (stereo not given) | > 50 µM (inactive)
35 | CCC(=O)Nc1ccc(N/C(N)=N/c2nc(C)cc(C)n2)cc1 | > 50 µM (inactive)
36 | Cc1ccc(O)c(Nc2c3ccccc3nc3ccccc23)c1 | 48.8 µM
37 | Cc1c(Cl)c([N+](=O)[O-])nn1CCCC(=O)Nc1sc2c(c1C(N)=O)CCC(C)C2 (stereo not given) | > 50 µM (inactive)
38 | COc1ccc(OC)c(N(CC(=O)O)S(=O)(=O)c2ccc(OC)c(OC)c2)c1 | > 50 µM (inactive)
39 | Cc1ccc(S(=O)(=O)CC(=O)N(CCCN(C)C)c2nc3ccc(C)cc3s2)cc1 | > 50 µM (inactive)
40 | CSc1nc(NCC(C)C)c2c3c(sc2n1)CN(C)CC3 | 44.2 µM
41 | O=C(Nc1nonc1NC(=O)c1cccs1)c1cccs1 | > 50 µM (inactive)
42 | CCN(CC)Cc1c(O)c(Cl)cc2c(C)c(C)c(=O)oc12 | 21.1 µM
43 | CCCc1n(CC(O)COCc2ccccc2)c2ccccc2[n+]1C (stereo not given) | > 50 µM (inactive)
44 | CCC(=O)N(C)/C=C1\Sc2ccccc2C1=O | > 50 µM (inactive)
45 | CCS(=O)(=O)c1ccc(S(=O)(=O)CC)s1 | > 50 µM (inactive)
46 | COc1ccc(C(CNC(=O)c2cc(F)c(F)c(F)c2F)N2CCOCC2)cc1 (stereo not given) | > 50 µM (inactive)
47 | CN(C)C=NC(=O)c1cc(C(=O)c2ccc(C(C)(C)C)cc2)c[nH]1 | > 50 µM (inactive)
48 | CC1(C)CC(=O)C/C(=N\NC(=O)C2CC23CCC3)C1 (stereo not given) | > 50 µM (inactive)
49 | COc1ccc(Cn2c(O)c(C=Nc3ccc(OC)cc3)c3ccccc3c2=O)cc1 | > 50 µM (inactive)
50 | Cc1ccccc1/C=N/Nc1ccnc2cc(Cl)ccc12 | > 50 µM (inactive)
